Here are results for seven compounds from patent US20050271676A1, “Inducing cellular immune responses to human immunodeficiency virus-1 using peptide and nucleic acid compositions” (Epimmune Inc., priority 1993, published 2005).

pIC50: −log10 of the molar value. No end group written: not given here.

Usually pIC50 stands for −log10 of the IC50, conventionally taken in molar units.

For test [1], the target named is HLA-B51 (B*5101) (Homo sapiens, UniProt P01889, A329T/A93T/A95T/C349S/D138N/D201E/D98Y/E187L/E204Q/E69T/G107R/I218V/K202T/L105A/L119W/N104I/Q94N/R106L/R155S/R180L/S101N/S121T/S35A/S48A/V306I/V36M/Y195H/Y91F). Kind of test: purified HLA class I binding assay, B51 (B*5101).
For test [2], the target named is HLA-B*5401 (Homo sapiens, UniProt P01889, A329T/C349S/D138N/D201E/E176V/E187T/E204Q/E69G/I76V/K202T/L119W/R155S/R180L/S121T/S35A/S48A/V127L/V306I/V36M/Y140L). Kind of test: biochemical.
The target of test [3] is T1, HLA-B*0702 (Homo sapiens, UniProt P01889).
T1 construct: endogenous in cells; host or cells: GM3107
Kind of test: purified HLA class I binding assay, B*0702.

Test [4] addresses HLA-B*3501 (Homo sapiens, UniProt P01889, A329T/A93T/A95T/C349S/D201E/D98Y/E176V/E187L/E204Q/E69T/I218V/K202T/L119I/Q94N/R155S/R180L/S121R/S35A/S48A/T118I/V127L/V306I/V36M/Y140S/Y91F). Kind of test: purified HLA class I binding assay, B*3501.
Test [5] deals with HLA-B*5301 (Homo sapiens, UniProt P01889, A329T/A93T/A95T/C349S/D201E/D98Y/E176V/E187L/E204Q/E69T/G107R/I218V/K202T/L105A/L119I/N104I/Q94N/R106L/R155S/R180L/S101N/S121R/S35A/S48A/T118I/V127L/V306I/V36M/Y140S/Y91F). The test is described as follows: purified HLA class I binding assay, B*5301.
Test [6] concerns the target T2, HLA-DRB1*0401 (DR4w4) (Homo sapiens, UniProt P01903+P01911, A100K/A169T/F76Y/I96L/K127E/L162R/M171V/N62H/P40V/Q125Y/R42H/S133A/S149N/S66Y/V115G/V209L/W38E).
T2 construct: endogenous in cells; host or cells: Preiss
Kind of test: purified HLA class II binding assay, DRB1*0401 (DR4w4).

In test [7] the target is T3, HLA-DRB1*0901 (DR9) (Homo sapiens, UniProt P01903+P01911, A100R/A103E/D57H/D86V/F55Y/F60I/F76Y/I96F/K127E/L162R/M171V/P40D/Q125H/Q99R/R33Q/R42F/S133A/S66N/T210M/V115G/W38K/Y107V/Y59G/Y89S).
T3 construct: endogenous in cells
The test is described as follows: biochemical. The format is binding.

Test [8] deals with T4, HLA-DRB1*0802 (DR8w2) (Homo sapiens, UniProt P01903+P01911, A100R/A103L/A169T/F76Y/H45Y/I96F/K41T/L162R/M171V/P40S/Q125H/Q178H/Q39Y/Q99D/R218S/R42G/S66Y/V115G/W38E).
T4 construct: endogenous in cells
The test is described as follows: biochemical. The format is binding.

Test [9] has as its target T5, HLA-DRB1*0701 (DR7) (Homo sapiens, UniProt P01903+P01911, A100R/A102G/A103Q/D57E/D86V/E43K/F76Y/K127E/L162R/M171V/P40G/Q125H/Q99D/R33Q/R42Y/R54Q/S133A/S66F/T210M/V115G/Y107V/Y59L/Y89S).
T5 construct: endogenous in cells; host or cells: Pitout
The test is described as follows: biochemical. The format is binding.

In test [10] the target is T6, HLA-DRB1*1101 (DR5w11) (Homo sapiens, UniProt P01903+P01911, A100R/A169T/A87E/I96F/K41T/L162R/M171V/P40S/Q125H/Q178H/Q39Y/Q99D/R42S/S66Y/T262R/V115G/W38E).
T6 construct: endogenous in cells
T6 sequence (P01903 26-254, other chains not shown): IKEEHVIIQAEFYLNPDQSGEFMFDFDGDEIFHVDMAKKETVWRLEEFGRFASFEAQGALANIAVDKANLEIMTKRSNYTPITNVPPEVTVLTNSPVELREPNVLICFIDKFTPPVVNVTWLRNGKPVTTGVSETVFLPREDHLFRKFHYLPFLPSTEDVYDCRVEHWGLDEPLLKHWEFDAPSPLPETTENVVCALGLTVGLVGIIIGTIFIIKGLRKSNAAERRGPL
The test is described as follows: biochemical. The format is binding.

Test [11] has as its target T7, HLA-DRB1*1201 (DR5w12) (Homo sapiens, UniProt P01903+P01911, A100R/A169T/D57E/D86V/F55L/H45Y/K41T/L162R/M171V/P40S/Q125H/Q178H/Q39Y/Q99D/R42G/S66L/T262R/V114A/V67L/W38E/Y59H/Y61H/Y89S).
T7 construct: endogenous in cells
The test is described as follows: purified HLA class II binding assay, DRB1*1201 (DR5w12).

Test [12] concerns the target T8, HLA-DRB1*0301 (DR3) (Homo sapiens, UniProt P01903+P01911, A100K/A102G/A103R/A169T/F55Y/I96L/K41T/L162R/M171V/P40S/Q125H/Q178H/Q39Y/R42S/S66N/T106N/T262R/W38E/Y61H).
T8 construct: endogenous in cells; host or cells: MAT
The test is described as follows: purified HLA class II binding assay, DRB1*0301 (DR3), pH 4.5.

Test [13] addresses HLA-DRB1*0405 (DR4w15) (Homo sapiens, UniProt P01903+P01911, A100R/A169T/D86S/F76Y/I96L/K127E/L162R/M171V/N62H/P40V/Q125Y/R42H/S133A/S149N/S66Y/V115G/V209L/W38E). The test is described as follows: purified HLA class II binding assay, DRB1*0405 (DR4w15).
Test [14] has as its target HLA-DRB1*1302 (DR6w19) (Homo sapiens, UniProt P01903+P01911, A100E/A169T/K41T/L162R/M171V/P40S/Q125H/Q178H/Q39Y/Q99D/R42S/S66N/T262R/V115G/W38E/Y61H). Kind of test: purified HLA class II binding assay, DRB1*1302 (DR6w19).
Test [15] has as its target T9, HLA-DRB5*0101 (DR2w2β2) (Homo sapiens, UniProt P01903+Q30154).
T9 construct: expressed in transfected cells
Kind of test: biochemical. The format is binding.

The target in test [16] is T10, HLA-DRB1*1501 (DR2w2β1) (Homo sapiens, UniProt P01903+P01911).
T10 construct: expressed in transfected cells
Kind of test: purified HLA class II binding assay, DRB1*1501 (DR2w2β1).

T2 sequence (P01903 26-254 partner, other chains not shown): as the sequence (P01903 26-254, other chains not shown) above
HLA-DRB1*1302 (DR6w19), sequence (P01903 26-254 limits assumed, other chains not shown): as the sequence (P01903 26-254, other chains not shown) above
T8 sequence (P01903 26-254 partner, other chains not shown): as the sequence (P01903 26-254, other chains not shown) above

As to `CC(C)C[C@H](NC(=O)[C@H](CO)NC(=O)[C@H](CCCNC(=N)N)NC(=O)[C@H](CC(C)C)NC(=O)[C@H](CO)NC(=O)[C@H](C)NC(=O)[C@H](CC(C)C)NC(=O)[C@@H]1CCCN1C(=O)[C@@H](N)Cc1ccc(O)cc1)C(=O)N[C@@H](Cc1ccccc1)C(=O)O` [15.0268], the pIC50 was 7.41 in [1] and 6.15 in test [2].

`CC(C)C[C@H](NC(=O)[C@@H]1CCCN1C(=O)[C@@H](NC(=O)[C@H](CCC(N)=O)NC(=O)[C@@H]1CCCN1C(=O)[C@H](CCCNC(=N)N)NC(=O)[C@@H](NC(=O)[C@@H]1CCCN1C(=O)[C@@H](N)Cc1ccccc1)C(C)C)C(C)C)C(=O)O` [1146.01]: the pIC50 in test [1] was 7.94; in [3], 7.80; in test [4], 7.37; in [5], 6.32.

Take `CC[C@H](C)[C@H](NC(=O)[C@H](C)NC(=O)[C@@H]1CCCN1C(=O)[C@@H](N)CO)C(=O)N[C@@H](Cc1ccccc1)C(=O)N[C@@H](CCC(N)=O)C(=O)N[C@@H](CO)C(=O)N[C@@H](CO)C(=O)N[C@@H](CCSC)C(=O)N[C@H](C(=O)N[C@@H](CCCCN)C(=O)N[C@H](C(=O)N[C@@H](CC(C)C)C(=O)N[C@@H](CCC(=O)O)C(=O)N1CCC[C@H]1C(=O)O)[C@@H](C)CC)[C@@H](C)O` [Peptide 27.0344]: the pIC50 in test [6] is 5.45; in [7] it was 7.48; in test [8], 5.49; in test [9] it was 7.17; in test [10] it was 6.13; in test [11], less than 4.70. Moreover, the pIC50 is less than 4.70 in test [12], 6.96 in [13] and 7.89 in [14].

On to `CC(C)C[C@H](NC(=O)[C@H](CCCCN)NC(=O)[C@@H](NC(=O)[C@H](CC(C)C)NC(=O)[C@@H]1CCCN1C(=O)[C@@H]1CCCN1C(=O)[C@@H](NC(=O)[C@H](CC(N)=O)NC(=O)[C@@H](NC(=O)[C@H](Cc1ccccc1)NC(=O)[C@H](CCC(=O)O)NC(=O)[C@@H](N)Cc1c[nH]c2ccccc12)C(C)C)[C@@H](C)O)C(C)C)C(=O)N[C@@H](Cc1c[nH]c2ccccc12)C(=O)N[C@@H](Cc1ccc(O)cc1)C(=O)N[C@@H](CCC(N)=O)C(=O)O` [Peptide 27.0354], for which the pIC50 in test [6] was 7.55; in test [7], 7.41; in test [8], 6.46; in [9] it was 7.82; in test [11], 5.87; in test [13], 7.70. The pIC50 was 8.68 in [15] and 7.05 in test [14].

Turning to `CC[C@H](C)[C@H](NC(=O)CNC(=O)[C@H](CCCCN)NC(=O)[C@H](Cc1c[nH]cn1)NC(=O)[C@H](C)NC(=O)[C@@H]1CCCN1C(=O)[C@@H](NC(=O)[C@H](Cc1c[nH]c2ccccc12)NC(=O)[C@H](C)NC(=O)[C@H](CC(C)C)NC(=O)[C@H](Cc1ccc(O)cc1)NC(=O)[C@@H](NC(=O)[C@H](CCCCN)NC(=O)[C@@H](N)CCC(=O)O)C(C)C)C(C)C)C(=O)NCC(=O)O` [Peptide 27.0361], the pIC50 was 8.03 in test [6]; 6.84 in [7]; 7.51 in test [8]; 7.74 in test [9]; 7.43 in test [10]; 5.19 in [11]. The pIC50 in [12] was 5.49; in test [13], 7.57; in test [15], 8.31; in test [16], 7.68; in [14] it was 5.46.

As to CPKVSFEPI [1296.02], the pIC50 in test [3] was 7.00; in test [2] it was 7.00; in test [4] it was 5.29; in test [5], 5.61.

Consider FPISPIETV [Peptide 1261.01], for which the pIC50 is 5.46 in test [3], 8.04 in [2] and 5.98 in [4].
